13 molecules from US10030006B2, “Coumarin based Hsp90 inhibitors with urea and ether substituents” (University of Kansas, priority 2013, dated 2018) can be followed below.

Read-outs that look alike come from different tables or passages of the source.

Assay type in all cases: cell-based
For assay [1], the system named is PC-3. The experiment in a line: Anti-proliferation assay, PC-3. To be noted: Prostate Cancer. The protocol:
(§1) Cells were maintained in a 1:1 mixture of Advanced DMEM/F12 (Gibco) supplemented with non-essential amino acids, L-glutamine (2 mM), streptomycin (500 μg/mL), penicillin (100 units/mL), and 10% FBS. Cells were grown to confluence in a humidified atmosphere (37° C., 5% CO2), seeded (2000/well, 100 μL) in 96-well plates, and allowed to attach overnight. Compound at varying concentrations in DMSO (1% DMSO final concentration) was added, and cells were returned to the incubator for 72 h. At 72 h, the number of viable cells was determined using an MTS/PMS cell proliferation kit (Promega) per the manufacturer's instructions. Cells incubated in 1% DMSO were used at 100% proliferation, and values were adjusted accordingly. IC50 values were calculated from separate experiments performed in triplicate using GraphPad Prism.

Assay [2] concerns SKBr3 (estrogen receptor negative, Her2 over-expressing breast cancer cells). The experiment in a line: Anti-proliferation assay (MTS/PMS, 72 h), SKBr3. To be noted: Breast Cancer, read-out: IC50 SKBr3. Here is the method:
as §1
(§2) The anti-proliferative activity of these compounds is evaluated against two breast cancer cell lines, SKBr3 (estrogen receptor negative, Her2 over-expressing breast cancer cells) and MCF-7 (estrogen receptor positive breast cancer cells).

Assay [3] has as its system JMAR. The experiment in a line: Anti-proliferation assay, JMAR. To be noted: HSNCC. Here is the method: as §1
The test system of assay [4] is MDAMB231. The experiment in a line: Anti-proliferation assay, MDAMB231. The note with it: Tri-Neg. The protocol:
as §1

The subject of assay [5] is MRC5. The experiment in a line: Anti-proliferation assay, MRC5 (normal). The note with it: Homo sapiens, MRC5, Table 6, substituted phenyl ureas. Here is the method: as §1
Assay [6] deals with MDA1986. The experiment in a line: Anti-proliferation assay, MDA1986. To be noted: HSNCC. Here is the method: as §1
The subject of assay [7] is A-549. The experiment in a line: Anti-proliferation assay, A-549. Here is the method: as §1
Assay [8] relates to MCF-7 (estrogen receptor positive breast cancer cells). The experiment in a line: Anti-proliferation assay (MTS/PMS, 72 h), MCF-7. The note with it: Breast Cancer, read-out: IC50 MCF-3. The protocol:
as §1, §2

Assay [9] has as its system DRO81-1. The experiment in a line: Anti-proliferation assay, DRO81-1. The note with it: Thyroid. Here is the method:
as §1

In assay [10] the test system is HCT-116. The experiment in a line: Anti-proliferation assay, HCT-116. The protocol:
as §1

The subject of assay [11] is HMLE. The experiment in a line: Anti-proliferation assay, HMLE (normal). The note with it: HMLE, Table 6, substituted phenyl ureas. The protocol: as §1
The mark [12] stands for this setting: Homo sapiens, PC-3, Table 6, substituted phenyl ureas.
The mark [13] stands for this setting: Homo sapiens, SK-BR-3, Table 6, substituted phenyl ureas.
[14] abbreviates: JMAR, Table 6, substituted phenyl ureas.
Setting [15] is: Homo sapiens, MDA-MB-231, Table 6, substituted phenyl ureas.
Setting [16] is: MDA1986, Table 6, substituted phenyl ureas.
[17] abbreviates: Homo sapiens, A549, Table 6, substituted phenyl ureas.
The mark [18] stands for this setting: Homo sapiens, MCF7, Table 6, substituted phenyl ureas.
Where [19] appears, read: Table 6, substituted phenyl ureas.
The mark [20] stands for this setting: Homo sapiens, HCT-116, Table 6, substituted phenyl ureas.

In general, IC50 refers to the concentration that inhibits the measured activity by half. As for `Cc1c(OC2CCN(C)CC2)ccc2cc(NC(=O)Nc3ccc(Oc4ccccc4)cc3)c(=O)oc12` [p-phenoxyl, 1-(8-methyl-7-((1-methylpiperidin-4-yl)oxy)-2-oxo-2H-chromen-3-yl)-3-(4-phenoxyphenyl)urea], the IC50 in assay [1] (setting [12]) was 150 nM; in assay [2] (setting [13]), 400 nM; in [3] (setting [14]), 5300 nM; in [4] (setting [15]) it was 2200 nM; in assay [5], 11300 nM; in [6] (setting [16]), 6000 nM. Also, the IC50 in assay [7] (setting [17]) was 180 nM; in assay [8] (setting [18]), 700 nM; in assay [9] (setting [19]), 1800 nM; in assay [10] (setting [20]) it was 240 nM; in [11] it was more than 25000 nM.

Turning to `Cc1c(OC2CCN(C)CC2)ccc2cc(NC(=O)Nc3cccc(Cl)c3)c(=O)oc12` [m-Cl, 1-(3-chlorophenyl)-3-(8-methyl-7-((1-methylpiperidin-4-yl)oxy)-2-oxo-2H-chromen-3-yl)urea], the IC50 in assay [1] (setting [12]) was 1820 nM; in [2] (setting [13]) it was 300 nM; in assay [3] (setting [14]), 1700 nM; in assay [4] (setting [15]) it was 570 nM; in assay [5], 3100 nM; in assay [6] (setting [16]), 1700 nM. In addition, the IC50 turned out to be 63 nM in [7] (setting [17]); 520 nM in assay [8] (setting [18]); 3800 nM in assay [9] (setting [19]); 220 nM in assay [10] (setting [20]); 22000 nM in assay [11].

Take `Cc1cc(C)cc(NC(=O)Nc2cc3ccc(OC4CCN(C)CC4)c(C)c3oc2=O)c1` [3,5-dimethyl, 1-(3,5-dimethylphenyl)-3-(8-methyl-7-((1-methylpiperidin-4-yl)oxy)-2-oxo-2H-chromen-3-yl)urea]: the IC50 in assay [1] (setting [12]) turned out to be 1350 nM; in [2] (setting [13]) it was 300 nM; in [3] (setting [14]) it was 3400 nM; in assay [4] (setting [15]), 650 nM; in [5], 5900 nM; in assay [6] (setting [16]), 90 nM. Also, the IC50 in [7] (setting [17]) was found to be 52 nM; in [8] (setting [18]), 340 nM; in assay [9] (setting [19]), 8400 nM; in assay [10] (setting [20]) it was 170 nM; in assay [11], 13800 nM.

On to `Cc1c(OC2CCN(C)CC2)ccc2cc(NC(=O)Nc3ccc(C#N)cc3)c(=O)oc12` [p-CN, 1-(4-cyanophenyl)-3-(8-methyl-7-((1-methylpiperidin-4-yl)oxy)-2-oxo-2H-chromen-3-yl)urea], for which the IC50 came to 48 nM in [1] (setting [12]); 370 nM in assay [2] (setting [13]); 3700 nM in [3] (setting [14]); 440 nM in assay [4] (setting [15]); 5700 nM in [5]; 1620 nM in assay [6] (setting [16]). The IC50 turned out to be 43 nM in assay [7] (setting [17]); 430 nM in assay [8] (setting [18]); 280 nM in assay [9] (setting [19]); 570 nM in [10] (setting [20]); 4000 nM in assay [11].

For the molecule `Cc1ccc(NC(=O)Nc2cc3ccc(OC4CCN(C)CC4)c(C)c3oc2=O)cc1` [p-CH3, 1-(8-methyl-7-((1-methylpiperidin-4-yl)oxy)-2-oxo-2H-chromen-3-yl)-3-(p-tolyl)urea], the IC50 in assay [1] (setting [12]) turned out to be 810 nM; in assay [2] (setting [13]), 270 nM; in assay [3] (setting [14]), 3500 nM; in assay [4] (setting [15]), 910 nM; in assay [5] it was 6600 nM; in assay [6] (setting [16]), 3200 nM. The IC50 in [7] (setting [17]) was 17 nM; in assay [8] (setting [18]) it was 290 nM; in [9] (setting [19]) it was 16300 nM; in assay [10] (setting [20]), 59 nM; in [11] it was 3300 nM.

Take `Cc1c(OC2CCN(C)CC2)ccc2cc(NC(=O)Nc3cc(Cl)cc(Cl)c3)c(=O)oc12` [3,5-dichloro, 1-(3,5-dichlorophenyl)-3-(8-methyl-7-((1-methylpiperidin-4-yl)oxy)-2-oxo-2H-chromen-3-yl)urea]: the half-maximal inhibitory concentration (IC50) in assay [1] (setting [12]) was 160 nM; in assay [2] (setting [13]) it was 510 nM; in [3] (setting [14]), 6200 nM; in [4] (setting [15]), 3600 nM; in assay [5] it was more than 25000 nM; in assay [6] (setting [16]), 7500 nM. Moreover, the IC50 is 200 nM in assay [7] (setting [17]); 490 nM in assay [8] (setting [18]); 770 nM in assay [9] (setting [19]); 1210 nM in assay [10] (setting [20]); more than 25000 nM in [11].

As for `COc1ccc(C(C)(C)C)cc1NC(=O)Nc1cc2ccc(OC3CCN(C)CC3)c(C)c2oc1=O` [Compound 2-OMe-5-t-Bu, 1-(5-(tert-butyl)-2-methoxyphenyl)-3-(8-methyl-7-((1-methylpiperidin-4-yl)oxy)-2-oxo-2H-chromen-3-yl)urea], the IC50 in assay [1] (setting [12]) was 3820 nM; in assay [2] (setting [13]), 3870 nM; in assay [3] (setting [14]) it was 3800 nM; in assay [4] (setting [15]), 910 nM; in [5], 2650 nM; in [6] (setting [16]), 90 nM. Further, the IC50 in assay [7] (setting [17]) was determined as 840 nM; in [8] (setting [18]), 1530 nM; in assay [9] (setting [19]), 6100 nM; in [10] (setting [20]), 1240 nM; in assay [11], 6100 nM.

For the molecule `Cc1c(OC2CCN(C)CC2)ccc2cc(NC(=O)Nc3ccc(-c4ccccc4)cc3)c(=O)oc12` [p-phenyl, 1-([1,1′-biphenyl]-4-yl)-3-(8-methyl-7-((1-methylpiperidin-4-yl)oxy)-2-oxo-2H-chromen-3-yl)urea], the IC50 in assay [1] (setting [12]) was 52 nM; in assay [2] (setting [13]), 360 nM; in [3] (setting [14]) it was 930 nM; in assay [4] (setting [15]) it was 370 nM; in assay [5], 2000 nM; in [6] (setting [16]), 850 nM. Further, the IC50 in [7] (setting [17]) was 66 nM; in assay [8] (setting [18]) it was 700 nM; in [9] (setting [19]) it was 270 nM; in [10] (setting [20]) it was 150 nM; in [11] it was 3600 nM.

Turning to `Cc1c(OC2CCN(C)CC2)ccc2cc(NC(=O)NC34CC5CC(CC(C5)C3)C4)c(=O)oc12` [drawing 156], the IC50 in assay [1] (Table 9, non-aryl ureas) stood at 19 ± 3 nM; in assay [3] (Table 9, non-aryl ureas) it was 6200 nM; in assay [4] (Table 9, non-aryl ureas), 3000 nM; in assay [6] (Table 9, non-aryl ureas), 5900 nM; in [7] (Table 9, non-aryl ureas), 10 ± 10 nM; in assay [9] (Table 9, non-aryl ureas), 18700 nM. This molecule came in with an IC50 in assay [10] (Table 9, non-aryl ureas) of 82 ± 35 nM.

In the case of `Cc1c(OC2CCN(C)CC2)ccc2cc(NC(=O)Nc3cccc(Oc4ccccc4)c3)c(=O)oc12` [m-phenoxyl, 1-(8-methyl-7-((1-methylpiperidin-4-yl)oxy)-2-oxo-2H-chromen-3-yl)-3-(3-phenoxyphenyl)urea], the IC50 in [1] (setting [12]) was determined as 2160 nM; in assay [2] (setting [13]), 190 nM; in assay [3] (setting [14]), 2400 nM; in assay [4] (setting [15]), 280 nM; in assay [5] it was 2200 nM; in assay [6] (setting [16]), 570 nM. The IC50 in [7] (setting [17]) stood at 1020 nM; in assay [8] (setting [18]), 280 nM; in assay [9] (setting [19]), 3100 nM; in assay [11], 5200 nM.

Regarding `Cc1c(OC2CCN(C)CC2)ccc2cc(NC(=O)Nc3cccc(C(F)(F)F)c3)c(=O)oc12` [m-CF3, 1-(8-methyl-7-((1-methylpiperidin-4-yl)oxy)-2-oxo-2H-chromen-3-yl)-3-(3-(trifluoromethyl)phenyl)urea], the IC50 in assay [1] (setting [12]) is 43 nM; in [2] (setting [13]) it was 260 nM; in [3] (setting [14]) it was 1700 nM; in assay [4] (setting [15]), 550 nM; in assay [5], 1600 nM; in assay [6] (setting [16]) it was 150 nM. Further, the IC50 in [7] (setting [17]) amounted to 46 nM; in [8] (setting [18]) it was 280 nM; in assay [9] (setting [19]) it was 7300 nM; in assay [11], 16800 nM.

Turning to `Cc1c(OC2CCN(C)CC2)ccc2cc(NC(=O)NC3CCCCC3)c(=O)oc12` [drawing 155], the IC50 in [1] (Table 9, non-aryl ureas) is 1670 nM; in assay [2] (Table 9, non-aryl ureas), 3830 ± 330 nM; in assay [3] (Table 9, non-aryl ureas), more than 25000 nM; in [4] (Table 9, non-aryl ureas) it was more than 25000 nM; in assay [6] (Table 9, non-aryl ureas), more than 25000 nM; in [7] (Table 9, non-aryl ureas), more than 100000 nM. The IC50 in [8] (Table 9, non-aryl ureas) was 3840 ± 310 nM; in [9] (Table 9, non-aryl ureas), more than 25000 nM; in assay [10] (Table 9, non-aryl ureas), 9210 ± 6540 nM.

Take `Cc1c(OC2CCN(C)CC2)ccc2cc(NC(=O)NC3CCCC3)c(=O)oc12` [drawing 154]: the 50% inhibitory concentration (IC50) in assay [1] (Table 9, non-aryl ureas) is 2160 ± 1170 nM; in assay [2] (Table 9, non-aryl ureas), 2390 ± 350 nM; in assay [3] (Table 9, non-aryl ureas), more than 25000 nM; in [4] (Table 9, non-aryl ureas), 650 nM; in assay [6] (Table 9, non-aryl ureas) it was more than 25000 nM; in assay [7] (Table 9, non-aryl ureas), 1240 ± 940 nM. For the same molecule, the IC50 was 3830 ± 330 nM in assay [8] (Table 9, non-aryl ureas); 8800 nM in assay [9] (Table 9, non-aryl ureas); 7870 ± 7970 nM in assay [10] (Table 9, non-aryl ureas).
